Test results from patent publication US20050288347A1, “Certain triazole-based compounds, compositions, and uses thereof” (priority 2004, published 2005).
Entries after “also recorded” stand apart in the source; their conditions may differ.

Each molecule was assayed against protein kinase (assay: HTS ATP-utilizing enzyme assay, off-chip mobility-shift format (Caliper HTS 250)). Conditions: kinase(s) for which the compound exhibits protein kinase inhibitory activity; test compound 10 μM; active = greater than three-sigma from the mean activity of inactive compounds.
Format: biochemical, human
How it was run: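 Single-point screen at 10 μM compound in HEPES pH 7.5 buffer with Triton X-100 and BSA, 2.5 h at 20–22 °C. Substrate-to-phosphopeptide ratio measured by off-chip microfluidic mobility shift; EDTA wells as 100% and DMSO wells as 0% control, hits called at three-sigma limits.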

Kinase	SMILES
AURORA-A	Cn1c(SCC(=O)c2ccc3c(c2)OCCO3)nnc1-c1ccc(S(=O)(=O)N2CCOCC2)cc1
GSK3-β and SGK1	O=C(CSc1nnc(-c2ccc(O)cc2)n1CC1CCCO1)c1ccc2c(c1)OCCO2 (stereo not drawn)
DYRK2	CCCn1c(SCC(=O)c2ccc3c(c2)OCCO3)nnc1-c1ccco1
PDGFRR-α and FLT-3 and FYN	CCn1c(SCC(=O)c2cc(OC)ccc2OC)nnc1C(C)C
AKT1	O=C(CSc1nnc(CNc2ccc(F)cc2)n1CC1CCCO1)N1CCCc2ccccc21 (stereo not drawn)
FYN	CCOc1ccc(Nc2nnc(SCC(=O)c3cc(C(C)(C)C)c(O)c(C(C)(C)C)c3)n2-c2ccc(OCC)cc2)cc1
c-TAK1	Cn1c(SCC(=O)N2CCCCCC2)nnc1-c1ccc(S(=O)(=O)N2CCCC2)cc1
AURORA-A	CCn1c(SCC(=O)Nc2cc(OC)c(OC)cc2C(=O)O)nnc1-c1ccc(O)cc1
GSK3-α	O=C(CSc1nnc(-c2ccc(O)cc2)n1-c1cccc(Cl)c1)Nc1ccccc1
FYN	O=C(CSc1nnc(CCN2CCOCC2)n1-c1ccc(F)cc1)c1ccccc1
GSK3-β; also recorded: GSK3-α	O=C(CSc1nnc(-c2ccc(O)cc2)n1Cc1ccco1)Nc1nc2c(s1)CCCC2
GSK3-β; also recorded: GSK3-α	NC(=O)CSc1nnc(-c2ccc(O)cc2)n1Cc1ccco1
LYNA	C=CCn1c(SCC(=O)NCCCN2CCOCC2)nnc1-c1sc2ccccc2c1Cl
HCK	C=CCn1c(CSc2nc3ccccc3s2)nnc1SCC(=O)NCCO
CHEK2	CCn1c(SCC(=O)Nc2ccccc2)nnc1-c1ccc(O)cc1
SRC	CCn1c(SCC(=O)N(c2ccccc2)c2ccccc2)nnc1-c1ccc(O)cc1
PKA and MAPKAPK-2 and MSK1	CCn1c(SCC(=O)c2ccc(OC)cc2)nnc1-c1ccncc1
PDGFRR-α	COc1ccc(OC)c(C(=O)CSc2nnc(-c3ccccc3N)n2C)c1
CDK1	COc1ccccc1-n1c(SCC(=O)Nc2ccc3sc(C)nc3c2)nnc1-c1ccccc1O
DAPK1	COCCn1c(SCC(=O)N2c3ccccc3Sc3ccccc32)nnc1-c1cc2ccccc2cc1O
GSK3-α and AKT1	COc1ccc(-n2c(SC(C)C(=O)Nc3ccccc3)nnc2-c2ccc(O)cc2)cc1 (stereo not drawn)
GSK3-β; also recorded: GSK3-α	Cc1cc(NC(=O)CSc2nnc(-c3ccc(O)cc3)n2C)no1
CHEK2	COc1ccccc1-n1c(CNc2c(C)cccc2C)nnc1SCC(=O)Nc1cccc(O)c1
FYN	CCOc1ccc(NCc2nnc(SCC(=O)NCC3CCCO3)n2-c2ccccc2OC)cc1 (stereo not drawn)

Kinase	SMILES
PAK2	COc1ccc(OCc2nnc(SCC(=O)c3ccccc3)n2C)cc1
FYN	O=C(CSc1nnc(CSc2nc3ccccc3s2)n1-c1ccccc1)NCCO
CSK	O=C(CSc1nnc(CSc2nc3ccccc3s2)n1-c1ccccc1)NCCN1CCOCC1
HCK	O=C(CSc1nnc(CSc2nc3ccccc3s2)n1-c1ccccc1)N1CCN(CCO)CC1
GSK3-β and GSK3-α and ABL1	O=C(CSc1nnc(-c2ccncc2)n1CC1CCCO1)Nc1nccs1 (stereo not drawn)
GSK3-α	O=C(CSc1nnc(Cc2ccccc2)[nH]1)c1ccc2c(c1)OCCO2
AURORA-A and FYN	Cn1c(SCC(=O)c2ccc3c(c2)OCCO3)nnc1C1CC1
DYRK2; also recorded: GSK3-α	CC(C)(C)c1nnc(SCC(=O)c2ccc3c(c2)OCCO3)[nH]1
GSK3-β; also recorded: GSK3-α	Cc1ccc(NCc2nnc(S)n2CC2CCCO2)cc1Cl (stereo not drawn)
GSK3-α; also recorded: AURORA-A	Cc1ccc(-n2c(S)nnc2CNc2ccc(C)c(Cl)c2)cc1
MSK2 and CDK1	COc1ccc(NC(=O)CSc2nnc(-c3ccccc3O)n2-c2ccc(C)cc2)c(OC)c1
AKT1	COc1ccc(-n2c(SC(C)C(=O)Nc3c(C)cccc3C)nnc2-c2ccc(O)cc2)cc1 (stereo not drawn)
GSK3-α	CCn1c(SCC(=O)Nc2cccc(C(C)=O)c2)nnc1-c1ccc(O)cc1
GSK3-β; also recorded: GSK3-α	COc1ccc(-n2c(SCC(=O)Nc3cccc(C(C)=O)c3)nnc2-c2ccc(O)cc2)cc1
AKT1	CC(=O)c1ccc(NC(=O)CSc2nnc(-c3ccc(O)cc3)n2C)cc1
CHEK2	CCc1nnc(NC(=O)CSc2nnc(-c3ccc(S(=O)(=O)N4CCN(C)CC4)cc3)n2CC)s1
GSK3-β and GSK3-α and AKT1	CCc1nnc(NC(=O)CSc2nnc(-c3ccc(O)cc3)n2-c2ccc(OC)cc2)s1
PDGFRR-α and GSK3-α and ABL1	CCOc1ccc2nc(NC(=O)CSc3nnc(-c4ccncc4)n3CC3CCCO3)sc2c1 (stereo not drawn)
GSK3-α	O=C(CSc1nnc(-c2ccc(O)cc2)n1-c1cccc(Cl)c1)NCc1ccccc1
FYN	O=C(CSc1nnc(-c2ccc([N+](=O)[O-])cc2)n1/C=C/CN1CCOCC1)N1CCOCC1
GSK3-β and MSK2 and GSK3-α	COC(=O)c1ccccc1NC(=O)CSc1nnc(-c2ccc(O)cc2)n1Cc1ccco1
AKT3 and GSK3-β and GSK3-α	COC(=O)c1ccccc1NC(=O)CSc1nnc(-c2ccc(O)cc2)n1Cc1ccccc1
GSK3-β; also recorded: GSK3-α	COC(=O)c1ccccc1NC(=O)CSc1nnc(-c2ccc(O)cc2)n1C

SMILES	Kinase
O=C(CSc1nnc(-c2cccc(C(F)(F)F)c2)[nH]1)c1ccc2c(c1)OCCO2	AURORA-A; also recorded: GSK3-α; also recorded: FLT-3
Cc1cccc(-c2nnc(SCC(=O)c3ccc4c(c3)OCCO4)[nH]2)c1	FLT-3; also recorded: GSK3-α; also recorded: AURORA-A
Cc1nnc(SCC(=O)c2ccc3c(c2)OCCO3)[nH]1	GSK3-α; also recorded: GSK3-β; also recorded: DYRK2
CC(=O)c1cccc(NC(=O)CSc2nnc(-c3ccc(O)cc3)n2C)c1	GSK3-β; also recorded: GSK3-α; also recorded: CHEK2

Same assay, conditions: test compound 10 μM; active = activity greater than three-sigma from the mean of the predominately inactive population for that enzyme

protein kinase against which the compound exhibits inhibitory activity (Table 3)	SMILES
INSR	CC(=O)c1ccc(-n2c(SCCCCc3ccccc3)nnc2-c2cccc(Cl)c2)cc1
ROCK2	CCC(O)CSc1nnc(-c2cccc(Cl)c2)n1-c1ccccc1OC (stereo not drawn)
ROCK2	COc1ccccc1-n1c(SCC(O)c2ccccc2)nnc1-c1cccc(Cl)c1 (stereo not drawn)
ROCK2	COc1ccccc1-n1c(SCC(=O)c2ccc3c(c2)OCCO3)nnc1-c1cccc(Cl)c1
ROCK2	COc1ccccc1-n1c(SCC(=O)c2ccc(Cl)s2)nnc1-c1cccc(Cl)c1
ROCK2	COc1ccccc1-n1c(SCC(=O)Nc2ccccc2)nnc1-c1cccc(Cl)c1
ROCK2	COc1ccccc1-n1c(SCC(=O)c2ccc(F)cc2)nnc1-c1cccc(Cl)c1
PIM-1-KINASE	COc1ccccc1-n1c(SCCN)nnc1-c1cccc(Cl)c1
ROCK2	COc1ccccc1-n1c(SC2Cc3ccccc3C2=O)nnc1-c1cccc(Cl)c1 (stereo not drawn)
LCK	C=C(C)Cn1c(SCC(=O)NN)nnc1-c1ccc(Br)cc1
ROCK2	COc1ccccc1-n1c(SCc2ccc(Cl)nc2)nnc1-c1cccc(Cl)c1
AURORA-A	Cc1ccc(-n2c(SCC(=O)NNC(=O)c3ccccc3O)nnc2-c2ccccc2O)cc1
ROCK2	COc1ccccc1-n1c(SCCn2cccc2)nnc1-c1cccc(Cl)c1
ROCK2	COc1ccccc1-n1c(SCc2ccc(F)c(F)c2)nnc1-c1cccc(Cl)c1
ROCK2	COc1ccccc1-n1c(SCc2cccc(C(=O)O)c2)nnc1-c1cccc(Cl)c1
AURORA-A	COc1ccccc1-n1c(SCc2ccc(C(=O)O)cc2)nnc1-c1cccc(Cl)c1
ROCK2	COc1ccccc1-n1c(SCc2csc(C)n2)nnc1-c1cccc(Cl)c1
AURORA-A	O=C(CSc1nnc(-c2ccc(O)cc2)n1-c1ccccc1)NNC(=O)c1ccc(Cl)cc1
SYK	COc1ccc(C(=O)NNC(=O)CSc2nnc(C)n2CC2CCCO2)cc1 (stereo not drawn)
DGFRR-α	COc1ccc(C(=O)NNC(=O)CSc2nnc(C)n2CCc2ccccc2)cc1
ROCK2	COc1ccccc1-n1c(SCCC2COCCN2)nnc1-c1cccc(Cl)c1 (stereo not drawn)
AURORA-A	COc1ccccc1-n1c(SCC(=O)Nc2cccc(NC(=O)C3CCCO3)c2)nnc1-c1ccccc1O (stereo not drawn)
AURORA-A	O=C(CSc1nnc(-c2ccc(O)cc2)n1-c1ccccc1)NN(Br)C(=O)c1ccccc1
FYN and FLT-3 and SYK	COc1ccccc1-n1c(SCC(=O)NN(O)C(=O)c2ccccc2)nnc1-c1ccccc1O
FYN and HCK	O=C(CSc1nnc(-c2ccccc2O)n1Cc1ccccc1)NNC(=O)c1ccccc1O
GSK3-a; also recorded: AURORA-A	CCn1c(SCC(=O)NNC(=O)c2ccc(OC)cc2)nnc1-c1ccc(O)cc1
PDGFRR-α and GSK3-β and CDK1	COc1ccc(C(=O)NNC(=O)CSc2nnc(CNc3cccc(Cl)c3)n2CCc2ccccc2)cc1
FYN and SRC and HCK	Cc1cc(C)nc(SCc2nnc(SCC(=O)NNC(=O)c3ccccc3O)n2-c2ccccc2)n1
FYN and SRC and FLT-3	Cc1cc(C)nc(SCc2nnc(SCC(=O)NNC(=O)c3ccccc3O)n2C)n1

SMILES	protein kinase against which the compound exhibits inhibitory activity (Table 3)
COc1ccc(C(=O)NNC(=O)CSc2nnc(-c3ccc(O)cc3)n2Cc2ccco2)cc1	GSK3-β; also recorded: AURORA-A; also recorded: PDGFRR-α
